The supplement of paper PMC10307832

Tests used:
Experiment in all cases: relative viability (nuclei count vs DMSO), 5 days (fraction); higher = more cells survive
[1] = compound: CN(c1ncccc1CNc1nc(Nc2ccc3c(c2)CC(=O)N3)ncc1C(F)(F)F)S(C)(=O)=O + Cc1cc(Nc2cc(N3CCN(C)CC3)nc(Sc3ccc(NC(=O)C4CC4)cc3)n2)n[nH]1 [Tozasertib] (partner 0.1 µM)
Method in brief: (§1)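 Relative viability is defined as nuclei in treated wells over nuclei in vehicle wells. Duplicate plates were run and medians reported. Lung cancer cell lines in 1536-well plates were dosed by pin tool one day after seeding, with one drug or with a fixed anchor-drug dose plus five library-drug doses (not always all listed) in √10 steps, and nuclei were counted after 5 days.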

[2] = compound: CN(c1ncccc1CNc1nc(Nc2ccc3c(c2)CC(=O)N3)ncc1C(F)(F)F)S(C)(=O)=O + Cc1nc(Nc2ncc(C(=O)Nc3c(C)cccc3Cl)s2)cc(N2CCN(CCO)CC2)n1 [Dasatinib] (partner 0.075 µM)
Method in brief: as §1

[3] = compound: CN(c1ncccc1CNc1nc(Nc2ccc3c(c2)CC(=O)N3)ncc1C(F)(F)F)S(C)(=O)=O + CCNC(=O)c1noc(-c2cc(C(C)C)c(O)cc2O)c1-c1ccc(CN2CCOCC2)cc1 [Luminespib] (partner 0.01 µM)
Method in brief: as §1

[4] = compound: CN(c1ncccc1CNc1nc(Nc2ccc3c(c2)CC(=O)N3)ncc1C(F)(F)F)S(C)(=O)=O + N=C(N)NC(=N)NCCc1ccccc1 [Phenformin] (partner 250 µM)
Method in brief: as §1

[5] = compound: CN(c1ncccc1CNc1nc(Nc2ccc3c(c2)CC(=O)N3)ncc1C(F)(F)F)S(C)(=O)=O + COc1cccc2cc(-c3nc([C@H]4CC[C@H](C(=O)O)CC4)n4ncnc(N)c34)[nH]c12 [OSI-027] (partner 0.5 µM)
Method in brief: as §1

[6] = compound: CN(c1ncccc1CNc1nc(Nc2ccc3c(c2)CC(=O)N3)ncc1C(F)(F)F)S(C)(=O)=O + COc1cc2c(Oc3ccc(NC(=O)C4(C(=O)Nc5ccc(F)cc5)CC4)cc3F)ccnc2cc1OCCCN1CCOCC1 [Foretinib] (partner 0.25 µM)
Method in brief: as §1

[7] = compound: CN(c1ncccc1CNc1nc(Nc2ccc3c(c2)CC(=O)N3)ncc1C(F)(F)F)S(C)(=O)=O
Method in brief: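 MetaXpress counted nuclei in 4× images of lung cancer cell lines that had been fixed, permeabilised and Hoechst-stained in one step. Before that, cells in 1536-well plates were kept overnight at 37 °C, pinned with five √10-spaced library-drug doses on vehicle-anchored plates, and cultured 5 days without medium change. Viability takes treated-well nuclei over vehicle-well nuclei and uses the median across plates. Plates were accepted only at control CV below 25% and at least one doubling.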

[8] = compound: CN(c1ncccc1CNc1nc(Nc2ccc3c(c2)CC(=O)N3)ncc1C(F)(F)F)S(C)(=O)=O + O=C(CCCCCCC(=O)Nc1ccccc1)NO [Vorinostat] (partner 1 µM)
Method in brief: as §1

[9] = compound: CN(c1ncccc1CNc1nc(Nc2ccc3c(c2)CC(=O)N3)ncc1C(F)(F)F)S(C)(=O)=O + Nc1nc2[nH]cc(CCc3ccc(C(=O)N[C@@H](CCC(=O)O)C(=O)O)cc3)c2c(=O)[nH]1 [Pemetrexed] (partner 0.2 µM)
Method in brief: as §1

[10] = compound: CN(c1ncccc1CNc1nc(Nc2ccc3c(c2)CC(=O)N3)ncc1C(F)(F)F)S(C)(=O)=O + NC(=O)Nc1cc(-c2cccc(F)c2)sc1C(=O)N[C@H]1CCCNC1 [AZD7762] (partner 0.2 µM)
Method in brief: as §1

[11] = compound: CN(c1ncccc1CNc1nc(Nc2ccc3c(c2)CC(=O)N3)ncc1C(F)(F)F)S(C)(=O)=O + CC(=O)Nc1cccc(-n2c(=O)n(C3CC3)c(=O)c3c(Nc4ccc(I)cc4F)n(C)c(=O)c(C)c32)c1 [Trametinib] (partner 0.02 µM)
Method in brief: as §1

[12] = compound: CN(c1ncccc1CNc1nc(Nc2ccc3c(c2)CC(=O)N3)ncc1C(F)(F)F)S(C)(=O)=O + Nc1ncn([C@H]2C[C@H](O)[C@@H](CO)O2)c(=O)n1 [Decitabine] (partner 2 µM)
Method in brief: as §1

[13] = compound: CN(c1ncccc1CNc1nc(Nc2ccc3c(c2)CC(=O)N3)ncc1C(F)(F)F)S(C)(=O)=O + O=C(c1cc(Cc2n[nH]c(=O)c3ccccc23)ccc1F)N1CCN(C(=O)C2CC2)CC1 [Olaparib] (partner 8 µM)
Method in brief: as §1

[14] = compound: CN(c1ncccc1CNc1nc(Nc2ccc3c(c2)CC(=O)N3)ncc1C(F)(F)F)S(C)(=O)=O + CC(=O)c1c(C)c2cnc(Nc3ccc(N4CCNCC4)cn3)nc2n(C2CCCC2)c1=O [Palbociclib] (partner 0.5 µM)
Method in brief: as §1

NCI-H1623 was tested, and the relative viability ([1]; first compound 0.03162 µM) was 0.452, the relative viability ([1]; first compound 0.1 µM) was 0.383 and the relative viability ([1]; first compound 0.3162 µM) was 0.447. The relative viability ([1]; first compound 1 µM) was 0.428, the relative viability ([2]; first compound 0.03162 µM) was 0.514 and the relative viability ([2]; first compound 0.1 µM) was 0.623. It also gave a relative viability ([2]; first compound 0.3162 µM) of 0.51, a relative viability ([2]; first compound 1 µM) of 0.528 and a relative viability ([3]; first compound 0.03162 µM) of 0.59. For the same cell line, the relative viability ([3]; first compound 0.1 µM) was 0.503, the relative viability ([3]; first compound 0.3162 µM) was 0.514 and the relative viability ([3]; first compound 1 µM) was 0.429. The relative viability ([4]; first compound 0.03162 µM) was 0.571, the relative viability ([4]; first compound 0.1 µM) was 0.626 and the relative viability ([4]; first compound 0.3162 µM) was 0.568. The relative viability ([4]; first compound 1 µM) was 0.593, the relative viability ([5]; first compound 0.01 µM) was 0.418 and the relative viability ([5]; first compound 0.03162 µM) was 0.423. The relative viability ([5]; first compound 0.1 µM) was 0.428, the relative viability ([5]; first compound 0.3162 µM) was 0.435 and the relative viability ([5]; first compound 1 µM) was 0.462. It also gave a relative viability ([6]; first compound 0.01 µM) of 0.798, a relative viability ([6]; first compound 0.03162 µM) of 0.905 and a relative viability ([6]; first compound 0.1 µM) of 0.974. For the same cell line, the relative viability ([6]; first compound 0.3162 µM) was 0.882, the relative viability ([6]; first compound 1 µM) was 0.826 and the relative viability ([7]; 0.01 µM) was 0.733. It also gave a relative viability ([7]; 0.03162 µM) of 1.07, a relative viability ([7]; 0.1 µM) of 0.92 and a relative viability ([7]; 0.3162 µM) of 0.968. The relative viability ([7]; 1 µM) was 0.963.
With NCI-H1648 the relative viability ([8]; first compound 0.01 µM) was 0.336, the relative viability ([8]; first compound 0.03162 µM) was 0.493 and the relative viability ([8]; first compound 0.1 µM) was 0.471. It also gave a relative viability ([8]; first compound 0.3162 µM) of 0.292, a relative viability ([8]; first compound 1 µM) of 0.413 and a relative viability ([1]; first compound 0.01 µM) of 0.433. For the same cell line, the relative viability ([1]; first compound 0.03162 µM) was 0.36, the relative viability ([1]; first compound 0.1 µM) was 0.317 and the relative viability ([1]; first compound 0.3162 µM) was 0.386. The relative viability ([1]; first compound 1 µM) was 0.407, the relative viability ([9]; first compound 0.01 µM) was 0.66 and the relative viability ([9]; first compound 0.03162 µM) was 0.707. For the same cell line, the relative viability ([9]; first compound 0.1 µM) was 0.604, the relative viability ([9]; first compound 0.3162 µM) was 0.694 and the relative viability ([9]; first compound 1 µM) was 0.422. The relative viability ([10]; first compound 0.01 µM) was 0.66, the relative viability ([10]; first compound 0.03162 µM) was 0.588 and the relative viability ([10]; first compound 0.1 µM) was 0.535. For the same cell line, the relative viability ([10]; first compound 0.3162 µM) was 0.551, the relative viability ([10]; first compound 1 µM) was 0.677 and the relative viability ([11]; first compound 0.01 µM) was 0.417. The relative viability ([11]; first compound 0.03162 µM) was 0.435, the relative viability ([11]; first compound 0.1 µM) was 0.462 and the relative viability ([11]; first compound 0.3162 µM) was 0.392. The relative viability ([11]; first compound 1 µM) was 0.301, the relative viability ([12]; first compound 0.01 µM) was 0.6 and the relative viability ([12]; first compound 0.03162 µM) was 0.476. It also gave a relative viability ([12]; first compound 0.1 µM) of 0.426, a relative viability ([12]; first compound 0.3162 µM) of 0.485 and a relative viability ([12]; first compound 1 µM) of 0.367. It also gave a relative viability ([13]; first compound 0.01 µM) of 0.874, a relative viability ([13]; first compound 0.03162 µM) of 0.886 and a relative viability ([13]; first compound 0.1 µM) of 0.918. It also gave a relative viability ([13]; first compound 0.3162 µM) of 0.48, a relative viability ([13]; first compound 1 µM) of 0.46 and a relative viability ([5]; first compound 0.01 µM) of 0.28. For the same cell line, the relative viability ([5]; first compound 0.03162 µM) was 0.237, the relative viability ([5]; first compound 0.1 µM) was 0.266 and the relative viability ([5]; first compound 0.3162 µM) was 0.25. It also gave a relative viability ([5]; first compound 1 µM) of 0.24, a relative viability ([14]; first compound 0.01 µM) of 0.264 and a relative viability ([14]; first compound 0.03162 µM) of 0.274. The relative viability ([14]; first compound 0.1 µM) was 0.224, the relative viability ([14]; first compound 0.3162 µM) was 0.242 and the relative viability ([14]; first compound 1 µM) was 0.207. It also gave a relative viability ([7]; 0.01 µM) of 0.773, a relative viability ([7]; 0.03162 µM) of 0.512 and a relative viability ([7]; 0.1 µM) of 0.585. It also gave a relative viability ([7]; 0.3162 µM) of 0.634 and a relative viability ([7]; 1 µM) of 0.458.
